The values that follow are results of earlier work, collected in US20200101067A1 (IRR, Inc., priority 2013, published 2020).

Where two headings read alike, the source gives them in different places. Bounds are passed on as bounds.

For data set [1], the target named is H1 receptor (Homo sapiens, UniProt P35367). Conditions: acidic pH, inflamed tissue.
Data set [2] relates to human rhinovirus.
Experiment in data set [3]: not given
This is another data set of the same source.

Data set [4] concerns IL-4, IL-6, and IL-8.

Chain of H1 receptor (P35367 whole entry): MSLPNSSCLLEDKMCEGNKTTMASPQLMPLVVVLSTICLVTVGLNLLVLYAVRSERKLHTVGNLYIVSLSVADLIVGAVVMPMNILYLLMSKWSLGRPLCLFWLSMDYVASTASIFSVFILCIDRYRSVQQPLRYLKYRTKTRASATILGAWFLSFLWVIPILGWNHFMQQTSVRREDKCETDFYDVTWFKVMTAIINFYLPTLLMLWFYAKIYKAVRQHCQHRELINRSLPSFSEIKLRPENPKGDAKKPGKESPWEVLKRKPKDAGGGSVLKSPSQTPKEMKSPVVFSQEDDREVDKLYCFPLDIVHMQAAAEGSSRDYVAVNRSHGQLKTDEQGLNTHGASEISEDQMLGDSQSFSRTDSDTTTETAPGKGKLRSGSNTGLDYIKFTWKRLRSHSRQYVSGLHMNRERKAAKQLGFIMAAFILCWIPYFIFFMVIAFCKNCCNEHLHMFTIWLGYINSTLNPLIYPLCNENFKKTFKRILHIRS

For the compound `O=C(O)COCCN1CCN([C@H](c2ccccc2)c2ccc(Cl)cc2)CC1` [Levocetirizine, levocetirizine], the “Enhanced receptor affinity over first generation mepyramine / first generation molecules” value in data set [1] is given as 5 ×; in data set [1] (listed as levocetirizine), “up to 5 ×”. The “Rhinovirus-induced ICAM-1 and cytokine expression and viral replication” value in data set [2] (airway epithelial cells) was “inhibits”. In data set [2] (stated as in vivo), the “ICAM-1, IL-6, IL-8, TLR3 expression and NF-kappa B activation” value is “decrease”. Besides, where the note is “in vivo”, the “Time to steady state level” value was 40 h. Besides, in data set [3] (higher doses, up to 30 mg/day), the “Principal side effect at higher doses” value is recorded as “Sedation”. Further, the “Dose that can be safely administered” value in data set [3] (studies in humans) is recorded as “up to 30 mg/day”. Besides, in data set [4], the Eosinophil migration result is listed as “decrease”. Besides, the “Inflammatory mediators IL-4, IL-6, and IL-8” value in data set [4] is “decrease”.

For the compound `CC(C)(O)c1ccccc1CC[C@@H](SCC1(CC(=O)O)CC1)c1cccc(/C=C/c2ccc3ccc(Cl)cc3n2)c1` [Montelukast, montelukast], the “Plasma concentration area under the curve profile, IV 7 mg vs approved 10 mg oral tablet” value (IV 7 mg) is on record as “comparable”. For the setting “in vivo”, the “Linear pharmacokinetics to dose” value is not above 50 mg, the Steady-state level reached entry is on record as “less than two” and the “Time to peak plasma level” value was 3 to 4 h. Further, under “in vivo, listed as montelukast”, the Steady-state level reached entry was “two”. Besides, the “Effect of a standard meal on oral bioavailability and Cmax” value (oral) is given as “not affected”. For the same compound, the “Dose without clinically important adverse experiences” value in data set [3] (adult patients, 22 weeks) is listed as “up to 200 mg/day”. In data set [3] (short-term studies, approximately one week), the “Dose without clinically important adverse experiences” value is recorded as “up to 900 mg/day”.
